Active and inactive are the calls of the source. The calls are words filed in the database; no cut-off is given here.
Assays:
[1] = biological target: T1, A disintegrin and metalloproteinase with thrombospondin motifs 4 (Homo sapiens, UniProt O75173)
T1 sequence (O75173 whole entry): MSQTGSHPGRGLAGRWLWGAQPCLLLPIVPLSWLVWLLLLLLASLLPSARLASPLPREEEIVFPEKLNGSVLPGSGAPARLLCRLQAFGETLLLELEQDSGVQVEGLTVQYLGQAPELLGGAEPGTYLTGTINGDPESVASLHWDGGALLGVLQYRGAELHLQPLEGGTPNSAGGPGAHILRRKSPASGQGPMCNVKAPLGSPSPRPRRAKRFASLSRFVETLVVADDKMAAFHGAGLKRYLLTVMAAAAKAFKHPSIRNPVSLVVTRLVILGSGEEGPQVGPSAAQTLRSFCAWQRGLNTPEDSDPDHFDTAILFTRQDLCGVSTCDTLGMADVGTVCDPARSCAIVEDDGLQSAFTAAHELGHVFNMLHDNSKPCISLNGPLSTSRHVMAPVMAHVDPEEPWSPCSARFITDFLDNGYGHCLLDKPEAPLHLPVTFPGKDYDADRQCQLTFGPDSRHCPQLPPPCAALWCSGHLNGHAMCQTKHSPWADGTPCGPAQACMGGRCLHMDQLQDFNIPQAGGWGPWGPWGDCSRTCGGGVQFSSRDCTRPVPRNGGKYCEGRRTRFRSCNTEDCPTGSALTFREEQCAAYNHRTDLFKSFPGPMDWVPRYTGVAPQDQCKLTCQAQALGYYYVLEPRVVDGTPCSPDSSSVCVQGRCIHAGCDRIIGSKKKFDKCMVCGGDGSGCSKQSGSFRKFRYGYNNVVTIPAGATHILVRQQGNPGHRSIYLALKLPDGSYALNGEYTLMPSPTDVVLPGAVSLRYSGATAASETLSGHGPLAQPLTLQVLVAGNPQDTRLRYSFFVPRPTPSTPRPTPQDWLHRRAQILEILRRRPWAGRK

[2] = Half life in male Sprague-Dawley rats; format: ADME, organism-based; conditions: rat, in vivo
[3] = biological target: Matrix metalloproteinase-14 (Homo sapiens, UniProt P50281); assay: Inhibitory activity against MMP14
Interstitial collagenase = biological target: T2, Interstitial collagenase (Homo sapiens, UniProt P03956); assay: Inhibitory activity against MMP1
T2 sequence (P03956 whole entry): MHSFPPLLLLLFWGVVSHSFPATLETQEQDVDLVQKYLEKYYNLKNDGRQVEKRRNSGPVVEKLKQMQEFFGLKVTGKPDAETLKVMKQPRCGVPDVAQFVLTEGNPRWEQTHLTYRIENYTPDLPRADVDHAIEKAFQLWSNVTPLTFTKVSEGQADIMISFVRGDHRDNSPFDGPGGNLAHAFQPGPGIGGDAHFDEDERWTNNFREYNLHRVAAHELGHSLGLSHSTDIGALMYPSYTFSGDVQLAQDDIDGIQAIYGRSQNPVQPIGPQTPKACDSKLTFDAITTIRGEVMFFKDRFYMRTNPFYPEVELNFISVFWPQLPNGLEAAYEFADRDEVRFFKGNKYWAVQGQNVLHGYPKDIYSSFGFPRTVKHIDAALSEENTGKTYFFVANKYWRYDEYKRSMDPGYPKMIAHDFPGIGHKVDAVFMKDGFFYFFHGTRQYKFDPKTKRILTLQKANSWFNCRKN

Collagenase 3 = Collagenase 3 (Homo sapiens, UniProt P45452)
[4] = biological target: 72 kDa type IV collagenase (Homo sapiens, UniProt P08253); assay: Inhibitory activity against MMP2
[5] = Oral bioavailability in male Sprague-Dawley rats; format: ADME, organism-based; conditions: rat, in vivo
[6] = biological target: T3, A disintegrin and metalloproteinase with thrombospondin motifs 4 (Bos taurus) (UniProt Q9TT93); assay: Inhibition of IL1induced proteoglycan degradation in bovine cartilage, 3 day incubation at 10 ug/mL; format: functional
T3 sequence (whole entry): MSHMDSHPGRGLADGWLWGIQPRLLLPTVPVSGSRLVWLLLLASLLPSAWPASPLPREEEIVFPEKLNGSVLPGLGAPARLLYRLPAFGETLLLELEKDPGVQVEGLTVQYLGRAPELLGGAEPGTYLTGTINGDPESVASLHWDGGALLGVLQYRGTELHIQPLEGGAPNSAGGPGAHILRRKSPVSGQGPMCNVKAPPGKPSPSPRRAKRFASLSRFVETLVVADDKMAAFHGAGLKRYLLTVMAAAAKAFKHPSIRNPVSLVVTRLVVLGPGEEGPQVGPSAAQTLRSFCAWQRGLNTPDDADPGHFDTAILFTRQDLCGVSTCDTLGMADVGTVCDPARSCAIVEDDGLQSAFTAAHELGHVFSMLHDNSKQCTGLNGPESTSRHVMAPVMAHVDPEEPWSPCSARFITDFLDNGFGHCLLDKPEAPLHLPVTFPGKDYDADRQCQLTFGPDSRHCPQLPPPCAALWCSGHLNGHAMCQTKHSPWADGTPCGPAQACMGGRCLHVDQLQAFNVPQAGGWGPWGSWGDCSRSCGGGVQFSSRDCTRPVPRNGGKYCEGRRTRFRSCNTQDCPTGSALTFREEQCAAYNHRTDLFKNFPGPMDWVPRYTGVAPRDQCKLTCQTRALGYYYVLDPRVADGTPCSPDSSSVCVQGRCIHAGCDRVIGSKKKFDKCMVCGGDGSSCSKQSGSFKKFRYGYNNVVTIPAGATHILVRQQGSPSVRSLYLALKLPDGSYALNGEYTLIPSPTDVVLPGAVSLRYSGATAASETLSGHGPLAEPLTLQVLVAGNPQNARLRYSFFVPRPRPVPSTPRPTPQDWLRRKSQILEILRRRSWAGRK

[7] = Cmax in male Sprague-Dawley rats; format: ADME, organism-based; conditions: rat, in vivo
[8] = Clearance in male Sprague-Dawley rats; format: ADME, organism-based; conditions: rat, in vivo
[9] = biological target: T4, A disintegrin and metalloproteinase with thrombospondin motifs 4 (Homo sapiens) (UniProt O75173); assay: Inhibitory activity against human Aggrecanase 1
T4 sequence (whole entry): T1 sequence (O75173 whole entry)

Sequence of 72 kDa type IV collagenase (P08253 whole entry): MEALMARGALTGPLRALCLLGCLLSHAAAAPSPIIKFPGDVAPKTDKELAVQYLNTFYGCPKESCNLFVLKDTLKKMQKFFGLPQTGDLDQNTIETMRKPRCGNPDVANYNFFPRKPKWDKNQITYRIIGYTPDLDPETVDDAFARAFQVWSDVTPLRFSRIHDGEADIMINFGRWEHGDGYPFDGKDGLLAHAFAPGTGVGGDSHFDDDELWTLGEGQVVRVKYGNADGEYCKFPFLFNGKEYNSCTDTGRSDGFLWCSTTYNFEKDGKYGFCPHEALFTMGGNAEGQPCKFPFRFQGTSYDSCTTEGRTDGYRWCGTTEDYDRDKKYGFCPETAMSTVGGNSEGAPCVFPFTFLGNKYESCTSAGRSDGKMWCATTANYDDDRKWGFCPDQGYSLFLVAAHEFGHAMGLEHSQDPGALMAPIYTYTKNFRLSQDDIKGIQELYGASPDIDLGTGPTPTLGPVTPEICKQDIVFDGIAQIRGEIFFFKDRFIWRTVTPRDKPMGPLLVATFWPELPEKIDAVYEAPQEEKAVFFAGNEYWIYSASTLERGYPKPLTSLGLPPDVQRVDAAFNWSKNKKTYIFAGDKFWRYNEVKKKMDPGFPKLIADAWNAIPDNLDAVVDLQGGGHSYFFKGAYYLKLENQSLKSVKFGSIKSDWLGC

CC(C)[C@H](NS(=O)(=O)c1ccc(-c2ccccc2)cc1)C(=O)O
IC50 [1]: > 100 µM

O=C(O)[C@@H](Cc1ccccc1)NS(=O)(=O)c1ccc(-c2ccccc2)cc1
IC50 [1]: 4.3 µM

CC(C)[C@H](C(=O)O)N(Cc1cccnc1)S(=O)(=O)c1ccc(-c2ccccc2)cc1
IC50 [1]: 12 µM

C[C@@H](NS(=O)(=O)c1ccc(-c2ccccc2)cc1)C(=O)O
IC50 [1]: 5.5 µM

CC(C)[C@@H](NS(=O)(=O)c1ccc(-c2ccc(CC(=O)c3cc4ccccc4o3)cc2)cc1)C(=O)O
IC50 [1]: 3.8 µM

O=C(O)[C@@H](Cc1cc2ccccc2[nH]1)NS(=O)(=O)c1ccc(-c2ccccc2)cc1
IC50 [1]: 2.8 µM

Cc1c(COc2ccc(-c3ccc(S(=O)(=O)N[C@H](Cc4ccccc4)C(=O)O)cc3)cc2)oc2ccccc12
half-life [2]: 277 min
IC50 [3]: 3 µM
IC50 (Interstitial collagenase): > 100 µM
IC50 (Collagenase 3): 4.4 nM
IC50 [4]: 28 nM
bioavailability [5]: 35%
inhibition [6]: 89%
IC50 [1]: 0.7 µM
Cmax [7]: 1360 ng/mL
clearance [8]: 16.1 mL/min/kg

COc1ccc(S(=O)(=O)N(Cc2cccnc2)C(C(=O)NO)C(C)C)cc1 (single isomer, unassigned)
inhibition [9]: inactive

CC(C)[C@@H](NS(=O)(=O)c1ccc(-c2ccc(OC(=O)c3cc4ccccc4o3)cc2)cc1)C(=O)O
IC50 [1]: 0.35 µM

CC(C)[C@@H](NS(=O)(=O)c1cccc(-c2ccccc2)c1)C(=O)O
IC50 [1]: > 100 µM

CC(C)[C@@H](NS(=O)(=O)c1ccc(-c2ccc(NC(=O)c3cc4ccccc4o3)cc2)cc1)C(=O)O
IC50 [1]: 7.5 µM

Cc1c(C(=O)Oc2ccc(-c3ccc(S(=O)(=O)N[C@@H](C(=O)O)C(C)C)cc3)cc2)oc2ccccc12
IC50 [1]: 0.086 µM

CC(C)C(CC(=O)O)NS(=O)(=O)c1ccc(-c2ccccc2)cc1 (stereo unspecified)
IC50 [1]: 100 µM

CC(C)[C@@H](NS(=O)(=O)c1ccc(-c2ccccc2O)cc1)C(=O)O
IC50 [1]: 20 µM

CC(C)[C@@H](NS(=O)(=O)c1ccc(-c2ccccc2)cc1)C(=O)O
IC50 [1]: 3 µM

CC(C)[C@@H](NS(=O)(=O)c1ccc(-c2ccc(/C=C/c3cc4ccccc4o3)cc2)cc1)C(=O)O
IC50 [1]: 0.4 µM

CC(C)[C@@H](NS(=O)(=O)c1ccc(-c2ccccc2[N+](=O)[O-])cc1)C(=O)O
IC50 [1]: 50 µM

O=C(O)CC[C@@H](NS(=O)(=O)c1ccc(-c2ccccc2)cc1)C(=O)O
IC50 [1]: 1.1 µM

CC(C)[C@@H](NS(=O)(=O)c1ccc(-c2ccc(OCc3cc4ccccc4o3)cc2)cc1)C(=O)O
IC50 [1]: 1.4 µM

CC(C)[C@@H](NS(=O)(=O)c1ccc(-c2ccccc2)c(N)c1)C(=O)O
IC50 [1]: 30 µM

COc1ccc(S(=O)(=O)N(Cc2cccnc2)[C@@H](C(=O)NO)C(C)C)cc1
inhibition ([9]; concentration not given here): 92%

CC(C)[C@H](C(=O)O)N(C)S(=O)(=O)c1ccc(-c2ccccc2)cc1
IC50 [1]: 1.6 µM

From ChEMBL document CHEMBL1147767, “Synthesis and biological evaluation of biphenylsulfonamide carboxylate aggrecanase-1 inhibitors” (Bioorg Med Chem Lett, 2006)
